Legend:
[1] = tested on: WiDr (NTR+ve); assay: Cell proliferation (sulphorhodamine B) IC50, NTR-transfected WiDr human colon cells; assay type: cell-based; conditions: for WiDr WT:NTR IC50 Ratio: 4 h, sensitivity ratio for NTR expression; for IC50: 4 h drug exposure, growth 5 further days
[2] = tested on: A549 (P450R+ve); assay: Cell proliferation (sulphorhodamine B) IC50, P450R-transfected A549 human lung cells, anoxia vs 20% O2; assay type: cell-based; conditions: for A549 (P450R+ve) 20% O2/anoxia IC50 Ratio: 4 h, sensitivity ratio for hypoxia; for IC50: 4 h drug exposure under 0% oxygen
[3] = tested on: SiHa human tumour xenografts; assay: SiHa xenograft excision / clonogenic assay, with or without 15 Gy radiation; assay type: in vivo; conditions: for Log kill, cmpd after radiation: single i.p. dose 5 min after 15 Gy, relative to radiation only; for Log kill, cmpd only, Mean ± sem: single i.p. dose, no radiation, relative to vehicle controls, excision 18 h; for Activity against hypoxic cells: 20% of respective MTDs, after radiation
[4] = in vivo; conditions: CD-1 nude, mouse, ip

| Compound | WiDr WT:NTR IC50 Ratio [1] | IC50 [1] [µM] | A549 (P450R+ve) 20% O2/anoxia IC50 Ratio [2] | IC50 [2] [µM] | Log kill, cmpd after radiation ([3]; 20% of MTD) | Log kill, cmpd after radiation ([3]; 75% of MTD) | Log kill, cmpd only, Mean ± sem ([3]; 75% of MTD) | Activity against hypoxic cells [3] | MTD [4] [µmol/kg] |
| --- | --- | --- | --- | --- | --- | --- | --- | --- | --- |
| 2 [(2-Bromoethyl)-5-[[(3-Hydroxypropyl)Amino]Carbonyl]-2,4-Dinitroanilino]Ethyl Methanesulfonate [IIa-13] | 90 | 5 | 18 | 32 | – | – | – | – | – |
| 2-((2-Bromoethyl)-2-{[(2-Hydroxyethyl)Amino]Carbonyl}-4,6-Dinitroanilino)Ethyl Methanesulfonate [IIb-12] | 48 | 0.4 | 133 | 0.28 | – | – | – | – | – |
| 2-((2-Bromoethyl)-2-{[(2-Hydroxypropyl)Amino]Carbonyl}-4,6-Dinitroanilino)Ethyl Methanesulfonate [IIb-13] | 27 | 0.3 | 138 | 0.15 | – | – | – | – | – |
| 2-((2-Bromoethyl)-3-{[(2-Hydroxyethyl)Amino]carbonyl}-2,4-Dinitroanilino)Ethyl Methanesulfonate [IIc-12] | 84 | 5 | 173 | 2.6 | – | – | – | – | – |
| 2-((2-Bromoethyl)-3-{[(3-Hydroxypropyl)Amino]Carbonyl}-2,4-Dinitroanilino)Ethyl Methanesulfonate [IIc-13] | 95 | 4.3 | 134 | 4.5 | – | – | – | – | – |
| 2-((2-Bromoethyl)-3-{[(4-Hydroxybutyl)Amino]Carbonyl}-2,4-Dinitroanilino)Ethyl Methanesulfonate [IIc-14] | 16 | 20 | 57 | 7.1 | – | – | – | – | – |
| 2-((2-Iodoethyl)-2-{[(2-Hydroxyethyl)Amino]Carbonyl}-4,6-Dinitroanilino)Ethyl Methanesulfonate [IIb-15] | 31 | 0.3 | 118 | 0.28 | – | – | – | – | – |
| 2-[(2-Bromoethyl)-2,4-Dinitro-3-[[[2-(Phosphonooxy)Ethyl]Amino]-Carbonyl]Anilino]Ethyl Methanesulfonate [Ic-12P] | – | – | – | – | 2.03 ± 0.25 | ≧2.96 ± 0.31 | 1.04 ± 0.29 | – | – |
| 2-[(2-Bromoethyl)-2,4-Dinitro-3-[[[3-(Phosphonooxy)Propyl]Amino]-Carbonyl]Anilino]Ethyl Methanesulfonate [Ic-13P] | – | – | – | – | 1.60 ± 0.20 | ≧3.23 ± 0.08 | 2.36 ± 0.28 | – | – |
| 2-[(2-Bromoethyl)-2,4-Dinitro-6-[[[2-(Phosphonooxy)Ethyl]Amino]-Carbonyl]Anilino]Ethyl Methanesulfonate [Ib-12P] | – | – | – | – | 1.65 ± 0.19 | ≧3.38 ± 0.28 | 1.32 ± 0.30 | – | – |
| 2-[(2-Chloroethyl)-2,4-Dinitro-3-[[[3-(Phosphonooxy)Propyl]Amino]-Carbonyl]Anilino]Ethyl Methanesulfonate [Ic-6P] | – | – | – | – | 1.64 ± 0.30 | ≧2.62 ± 0.17 | 1.11 ± 0.20 | – | – |
| 2-[(2-Chloroethyl)-2,4-Dinitro-6-[[[2-(Phosphonooxy)Ethyl]amino]-Carbonyl]Anilino]Ethyl Methanesulfonate [Ib-2mP] | – | – | – | – | 2.56 ± 0.37 | ≧3.47 ± 0.17 | 2.47 ± 0.08 | – | – |
| 2-[(2-Iodoethyl)-2,4-Dinitro-3-[[[3-(Phosphonooxy)Propyl]Amino]-Carbonyl]Anilino]Ethyl Methanesulfonate [Ic-15P] | – | – | – | – | 1.81 ± 0.23 | 2.80 ± 0.40 | 2.27 ± 0.17 | – | – |
| 2-[(2-Iodoethyl)-2,4-Dinitro-6-({[2-(Phosphonooxy)Ethyl]Amino}Carbonyl)-Anilino]Ethyl Methanesulfonate [Ib-15P] | – | – | – | – | 1.74 ± 0.23 | ≧3.27 ± 0.13 | 2.24 ± 0.15 | – | – |
| 2-[Bis(2-Chloroethyl)Amino]-N-(6-Hydroxybexyl)-3,5-Dinitrobenzamide [IIb-6] | 5 | 27 | – | – | – | – | – | – | – |
| O=C(O)CCCc1ccc(N(CCCl)CCCl)cc1 [Chlorambucil, reference compound] | – | – | – | – | – | – | 0.11 ± 0.04 | lacked activity | 237 |
| O=P1(N(CCCl)CCCl)NCCCO1 (centres unmarked) [Cyclophosphamide, reference compound] | – | – | – | – | – | – | – | lacked activity | 750 |
